Data on one compound can be found in PubChem BioAssay AID488790 (NMMLSC, 2010).

The assay concerns S. cerevisiae AGP1-GFP strain, flow cytometry fluorescence, 3 h. Kind of assay: analog potency on AGP1-GFP expression in yeast, SAR follow-up, cell-based, flow cytometry, S. cerevisiae, cherry pick 3 (AID 488790). In general terms: A flow cytometer gives signals particle by particle.

Usually EC50 stands for the concentration at which the effect is half-maximal. Turning to `CCOC(=O)CS(=O)(=O)c1nc(-c2ccccc2)cc(C(F)(F)F)n1`, the EC50 was 4.59 µM.
